Read-outs that look alike come from different tables or passages of the source.
What was measured:
[1] = Dissolution study, USP Apparatus 2 (paddle), distilled water containing 2.2% SDS; format: physicochemical; details: 2.2% SDS in purified water
Method: Material providing 125 mg of aprepitant was used in each dissolution experiment and in each experiment the test sample was added directly to the dissolution media as a loose powder.
Analysis was carried out by HPLC/UV using an Agilent 1100/1200 series HPLC system with UV variable wavelength detection. Standards were prepared in acetonitrile at 0.14 mg/ml. All standard and sample solutions were filtered through 0.45 μm filters.

[2] = Stability study under accelerated conditions, 40° C./75% RH, examined by XRPD
[3] = low solubility and low permeability API; cited from earlier work
[4] = cited from earlier work
[5] = nanoparticulate formulation (marketed capsules, oral); cited from earlier work
[6] = 0 mins, 900 ml, 37.0° C., 100 rpm, material providing 125 mg aprepitant, triplicate
[7] = 180 mins (infinity time point), 37.0° C., 100 rpm

| mean dissolution value [1, 6] | mean dissolution value ([1]; 1 min, 37.0° C., 100 rpm) | mean dissolution value ([1]; 2 mins, 37.0° C., 100 rpm) | mean dissolution value ([1]; 3 mins, 37.0° C., 100 rpm) | mean dissolution value ([1]; 4 mins, 37.0° C., 100 rpm) | mean dissolution value ([1]; 5 mins, 37.0° C., 100 rpm) | mean dissolution value ([1]; 10 mins, 37.0° C., 100 rpm) | mean dissolution value ([1]; 15 mins, 37.0° C., 100 rpm) | mean dissolution value ([1]; 20 mins, 37.0° C., 100 rpm) | mean dissolution value ([1]; 30 mins, 37.0° C., 100 rpm) | mean dissolution value ([1]; 45 mins, 37.0° C., 100 rpm) | mean dissolution value ([1]; 60 mins, 37.0° C., 100 rpm) | mean dissolution value [1, 7] | SMILES | other results |
| --- | --- | --- | --- | --- | --- | --- | --- | --- | --- | --- | --- | --- | --- | --- |
| 0.0% | more than 93% | 95.7% | 95.6% | 95.8% | 95.1% | 95.5% | 95.9% | 96.0% | 96.2% | 96.8% | 97.0% | 99.2% | C[C@@H](O[C@H]1OCCN(Cc2n[nH]c(=O)[nH]2)[C@H]1c1ccc(F)cc1)c1cc(C(F)(F)F)cc(C(F)(F)F)c1.O.O=C(O)[C@@H]1CCCN1 | behaviour once dissolved (re-precipitation of the API) ([1]; up to 180 minutes): remained in solution with no re-precipitation of the API; mean dissolution value ([1]; 1 min, 37.0° C., 100 rpm, listed as 1:1:1 Aprepitant L-proline cocrystal): 93.4%; XRPD Characterization ([2]; 1 month): cocrystal; XRPD Characterization ([2]; 1 week): cocrystal; XRPD Characterization ([2]; 2 months): cocrystal; XRPD Characterization ([2]; 2 week): cocrystal; XRPD Characterization ([2]; 3 months): cocrystal; XRPD Characterization ([2]; 3 week): cocrystal; XRPD Characterization ([2]; 6 months): cocrystal; physical stability with respect to dissociation into starting components ([2]; six month period): stable; XRPD Characterization ([2]; time point 0): cocrystal |
| 0.0% | 18.5% | 34.4% | 44.2% | 52.2% | 57.6% | 70.1% | 77.2% | 80.4% | 85.4% | 87.3% | 89.3% | 94.6% | C[C@@H](O[C@H]1OCCN(Cc2nc(=O)[nH][nH]2)[C@H]1c1ccc(F)cc1)c1cc(C(F)(F)F)cc(C(F)(F)F)c1 [Crystalline Aprepitant, reference compound] | time to achieve the same level of dissolution that the cocrystal achieved within the first minute ([1]; 37.0° C., 100 rpm): ~180 min; BCS class [3]: Class IV; solubility ([4]; in acetonitrile): slightly soluble; solubility ([4]; in ethanol): sparingly soluble; solubility ([4]; in isopropyl acetate): sparingly soluble; solubility ([4]; in water): practically insoluble; mean absolute bioavailability [5]: 60-65% |

Reference: US9029369B2, “Aprepitant L-proline composition and cocrystal” (Nuformix Limited, priority 2010, dated 2015)
